Experimental data reported in US20020182594A1, “Chemomagnetic retrieval of CMV and CMV infected cells” (priority 2001, published 2002).

Experiments:
US28 [1] = target: T1, US28 (Human cytomegalovirus, UniProt P69332); assay: Inhibition of binding of native chemokine ligands (fractalkine, eotaxin) to US28; parameters: species or system human CMV (HCMV); conditions: native chemokine ligands such as fractalkine and eotaxin, among others
chemokine receptors = assay: Binding specificity among chemokine receptors tested
US28 [2] = target: T1, US28; assay: Binding affinity of fractalkine to US28; parameters: species or system human CMV (HCMV); conditions: read-out: K1 (affinity of binding to US28)

T1 sequence (P69332 whole entry): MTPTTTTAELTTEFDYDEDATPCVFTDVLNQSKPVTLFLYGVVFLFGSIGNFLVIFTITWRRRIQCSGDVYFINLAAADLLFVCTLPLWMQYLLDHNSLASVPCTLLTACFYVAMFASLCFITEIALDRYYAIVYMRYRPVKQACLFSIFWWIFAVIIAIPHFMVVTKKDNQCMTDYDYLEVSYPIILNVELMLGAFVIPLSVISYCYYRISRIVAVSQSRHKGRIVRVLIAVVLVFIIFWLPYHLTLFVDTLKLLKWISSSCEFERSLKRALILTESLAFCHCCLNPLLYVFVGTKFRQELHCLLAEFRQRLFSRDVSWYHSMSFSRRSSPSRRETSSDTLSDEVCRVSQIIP

CCN1CCC[C@H]1CNC(=O)c1c(OC)ccc(I)c1O [S(−)-IBZM, S(−)-3-Iodo-2-hydroxy-6-methoxy-N[(1-ethyl-2-pyrrolidinyl)methyl]benzamide]
inhibition of the binding of native chemokine ligands to US28 (US28 [1]): effective inhibitor
specificity of binding to US28 among all chemokine receptors tested (chemokine receptors): bind specifically to US28

B1: fractalkine: the CX3C chemokine, expressed on certain endothelial cell surfaces and dendritic cells; native ligand of US28 (protein, UniProt P78423 25-397, looked up)
Fractalkine: QHHGVTKCNITCSKMTSKIPVALLIHYQQNQASCGKRAIILETRQHRLFCADPKEQWVKDAMQHLDRQAAALTRNGGTFEKQIGEVKPRTTPAAGGMDESVVLEPEATGESSSLEPTPSSQEAQRALGTSPELPTGVTGSSGTRLPPTPKAQDGGPVGTELFRVPPVSTAATWQSSAPHQPGPSLWAEAKTSEAPSTQDPSTQASTASSPAPEENAPSEGQRVWGQGQSPRPENSLEREEMGPVPAHTDAFQDWGPGSMAHVSVVPVSSEGTPSREPVASGSWTPKAEEPIHATMDPQRLGVLITPVPDAQAATRRQAVGLLAFLGLLFCLGVAMFTYQSLQGCPRKMAGEMAEGLRYIPRSCGSNSYVLVPV
Ki (US28 [2]): ~50 pM
